Where two headings read alike, the source gives them in different places.
Assays:
[1] = tested on: human, rabbit and rat plasma; assay: PT (prothrombin time) in plasma in vitro, Example 3; type: biochemical; conditions: for PT (seconds) Exp.2 A / PT (seconds) Exp. 1 A: active agent 0.5/ml, control; for prolongation of PT: 0.5 mg/ml, human, rabbit and rat plasma in vitro, dose-related
Description: (§1) Sodium, potassium and ammonium bisulphites are found to prolong PT and PTT in a dose-related fashion.
(§2) The evaluation procedure used is that described in "Human Blood Coagulation, Haemostasis and Thrombosis", edited by Rosemary Biggs, published by Blackwell Scientific Publications, Oxford, England (2nd Edition), pages 670-705, 1976.

[2] = tested on: human, rabbit and rat plasma; assay: PTT (partial thromboplastin time) in plasma in vitro, Example 3; type: biochemical; conditions: for PTT (seconds) Exp. 1 A / PTT (seconds) Exp. 2 A: active agent 0.5/ml, control; for prolongation of PTT: 0.5 mg/ml, human, rabbit and rat plasma in vitro, dose-related
Description: as §1, §2

[3] = PT of coded and various agents, Example 6; type: biochemical
Description: (§3) A variety of agents were coded and evaluated under a code designation. Among these compounds, thiouracil, mercaptosuccinic acid, thiosemicarbazide, phenothiazine and sodium thiosulphate were included, so as to compare sodium bisulphite with certain compounds mentioned in USP 4,148,855.
(§4) After determination of PT and PTT values, the coded compounds were decoded.
(§5) The results are shown in Table V, where mean values of 5 replications in each case are reported. […] This procedure was repeated with some additional compounds on two different days using a different control on each day.

[4] = PTT of coded and various agents, Example 6; type: biochemical; conditions: for PTT: Table V, coded agents 0.5 mg/ml, Control 43.38
Description: as §3, §4, §5

blood coagulation time = conditions: 10 mM; Kikugawa; cited from earlier work
[5] = rabbits; cited from earlier work
[6] = tested on: celite-fibrinogen suspension; conditions: Chao, cited from earlier work
thrombin = conditions: Elias; cited from earlier work
dog plasma = conditions: 10 mM, Elias; cited from earlier work
[7] = tested on: platelet-fibrinogen preparations; conditions: 10 to 50 mM; Chao; cited from earlier work
[8] = Table V, coded agents 0.5 mg/ml, Control 12.92
[9] = coded compounds after decoding, in vitro

Q: Which “PT (seconds) Exp.2 A” value ([1]; Test sequence A) does the source give for O=S([O-])S(=O)(=O)[O-].[K+].[K+] [Potassium metabisulphite] here?
A: 22.0 s

Q: With Ammonium sulphite as the compound, how does the “PT (seconds) Exp. 1 A” value ([1]; Test sequence A) read?
A: 14.7 s

Q: And the “PT (seconds) Exp.2 A” value ([1]; Test sequence A)?
A: 16.9 s

Q: What about the “PTT (seconds) Exp. 1 A” value ([2]; Test sequence A) of the same compound?
A: 56.5 s

Q: And the “PTT (seconds) Exp. 2 A” value ([2]; Test sequence A)?
A: 65.2 s

Q: And the “PT” value [3]?
A: 16.08 s

Q: With “Dihydroxymalcic acid 2 H2O [Solution A3, reference compound]” as the compound, how does the “PTT” value [4] read?
A: 53.00 s

Q: And the “PT” value [3, 8]?
A: 14.95 s

Q: With O=S(=O)(O)CO [SO3, Sodium formaldehyde bisulphite, reference compound] as the compound, how does the “effect on PTT values” [4, 9] read?
A: effected in increasing PT and PTT values

Q: What about the “effect on PT values” [3, 9] of the same compound?
A: effected in increasing PT and PTT values

Q: Which “PT” value [3] does the source give for “Sodium thiosulphate [SI6, reference compound]” here?
A: 13.5 s

Q: With ammonium bisulphite as the compound, how does the “prolongation of PT” value [1] read?
A: significantly prolong

Q: And the “prolongation of PTT” value [2]?
A: significantly prolong

Q: For O=S([O-])S(=O)(=O)[O-].[Na+].[Na+] [Sodium metabisulphite], which “PTT (seconds) Exp. 2 A” value ([2]; Test sequence A) is on record?
A: 80.3 s

Q: Which “effect on blood coagulation time” value (blood coagulation time) does the source give for sodium bisulphite/sulphite here?
A: no effect

Q: What about the LD50 [5] of the same compound?
A: 65 mg/kg

Q: For Sodium sulphite, which “PT (seconds) Exp. 1 A” value ([1]; Test sequence A) is on record?
A: 16.2 s

Q: What about the “PT (seconds) Exp.2 A” value ([1]; Test sequence A) of the same compound?
A: 17.7 s

Q: What about the “PT (seconds) Exp. 1 A” value ([1]; Test sequence B) of the same compound?
A: 16.8 s

Q: And the “PT (seconds) Exp.2 A” value ([1]; Test sequence B)?
A: 17.7 s

Q: And the “PTT (seconds) Exp. 1 A” value ([2]; Test sequence A)?
A: 66.1 s

Q: What about the “PTT (seconds) Exp. 2 A” value ([2]; Test sequence A) of the same compound?
A: 80.7 s

Q: What about the “PTT (seconds) Exp. 1 A” value ([2]; Test sequence B) of the same compound?
A: 74.8 s

Q: And the “PTT (seconds) Exp. 2 A” value ([2]; Test sequence B)?
A: 82.1 s

Q: What about the “inhibition of thrombin-induced light transmission increase (LTI)” value ([6]; 10 mM) of the same compound?
A: partial inhibition

Q: What about the “inhibition of thrombin-induced light transmission increase (LTI)” value ([6]; 50 mM) of the same compound?
A: complete inhibition

Q: And the “PTT” value [4]?
A: 64.62 s

Q: And the “inhibitory effect on TAME esterolytic activity of thrombin” value (thrombin)?
A: No inhibitory effect

Q: And the “PT” value [3]?
A: 16.38 s

Q: What about the “PT” value [3, 8] of the same compound?
A: 16.14 s

Q: And the “increase of thrombin time” value (dog plasma)?
A: about 38%

Q: And the “effect on the first wave of platelet-fibrinogen preparations” value [7]?
A: no effect

Q: With potassium bisulphite as the compound, how does the “prolongation of PT” value [1] read?
A: significantly prolong

Q: And the “prolongation of PTT” value [2]?
A: significantly prolong
